Measured values: patent publication US6127360A, “Diamine derivatives and pharmaceutical containing the same” (Kowa Co., Ltd., priority 1997, dated 2000)
Structures can show the parent of a compound that is named as a salt.

Experiments:
[1] = biological target: T1, LTD4 receptor (Cavia porcellus, UniProt Q2NNR5); assay: LTD4 Receptor Binding Inhibition Test ([3H]LTD4, guinea pig pulmomembranous protein); details: read-out: LTD4 receptor dissociation constant (KD)
T1 construct: guinea pig pulm-omembranous protein and a test compound; from tissue; host or cells: guinea pig lung membranes
T1 sequence (Q2NNR5 1-340): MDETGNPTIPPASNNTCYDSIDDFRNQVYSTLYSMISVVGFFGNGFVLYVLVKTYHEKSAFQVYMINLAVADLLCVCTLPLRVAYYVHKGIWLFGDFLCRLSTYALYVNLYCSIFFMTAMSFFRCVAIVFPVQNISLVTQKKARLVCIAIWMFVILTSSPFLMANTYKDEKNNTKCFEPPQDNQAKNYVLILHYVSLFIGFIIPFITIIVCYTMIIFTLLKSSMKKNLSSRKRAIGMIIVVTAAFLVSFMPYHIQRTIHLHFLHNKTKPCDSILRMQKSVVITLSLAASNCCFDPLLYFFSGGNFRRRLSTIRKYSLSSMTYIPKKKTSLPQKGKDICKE
Description: LTD4 Receptor Binding Inhibition Test
An ice-cold tris hydrochloride/sodium chloride buffer (10 mM/100 mM, pH 7.5) was added to terminate the reaction, followed by immediate filtration through a Wattman CF/C filter. The filter was washed twice with 20 ml aliquots of the ice-cold buffer. The radioactivity of the residue was measured by a liquid scintillation counter.
In a binding assay, […] LTD4 was used for the measurement of a nonspecific binding.

[2] = biological target: T2, H1 receptor (Cavia porcellus, UniProt P31389); assay: H1 Receptor Binding Inhibition Test ([3H]mepyramin, guinea pig cerebromembranous protein); details: read-out: H1 receptor dissociation constant (KD)
T2 construct: guinea pig cerebromembranous protein and a test compound; from tissue; host or cells: guinea pig brain membranes
T2 sequence (P31389 whole entry): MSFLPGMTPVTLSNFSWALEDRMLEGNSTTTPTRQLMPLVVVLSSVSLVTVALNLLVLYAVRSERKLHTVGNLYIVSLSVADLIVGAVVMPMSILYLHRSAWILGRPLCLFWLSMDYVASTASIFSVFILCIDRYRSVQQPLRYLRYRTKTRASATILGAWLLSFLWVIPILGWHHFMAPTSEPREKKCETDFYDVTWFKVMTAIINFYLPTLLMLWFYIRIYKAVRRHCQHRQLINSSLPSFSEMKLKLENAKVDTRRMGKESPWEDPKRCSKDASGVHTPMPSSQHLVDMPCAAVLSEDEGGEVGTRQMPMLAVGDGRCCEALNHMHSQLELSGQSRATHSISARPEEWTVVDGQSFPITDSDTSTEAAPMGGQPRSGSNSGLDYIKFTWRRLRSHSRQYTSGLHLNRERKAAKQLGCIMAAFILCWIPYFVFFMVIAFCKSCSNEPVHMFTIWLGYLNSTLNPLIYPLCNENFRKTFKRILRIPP
Description: H1 Receptor Binding Inhibition Test
An ice-cold phosphate buffer was added to terminate the reaction, followed by immediate filtration through a Wattman CF/C filter. The filter was washed twice with 20 ml aliquots of the ice-cold buffer. The radio-activity of the residue was measured by a liquid scintillation counter. From a measurement value obtained without the addition of the test compound and measurements values obtained upon addition of the test compound at various concentrations, the dose-response of the inhibitory action of the test compound was measured and the 50% inhibitory concentration (IC50) was determined. Using the Cheng-Prusoff formula, a dissociation constant (KD) was calculated from the 50% inhibitory concentration (IC50).
In a binding assay, 10^4 M R(-)dimethindene was used for the measurement of a nonspecific binding.

[3] = biological target: T3, isolated guinea pig ileum (Cavia porcellus, UniProt Q2NNR5); assay: Anti-LTD4 action on isolated guinea pig ileum (LTD4 contraction); type: cell-based; details: 10^-5 M test compound; contraction caused by 10^-8 M LTD4; read-out: Anti-LTD4 action (inhibition rate)
T3 construct: An isolated guinea pig ileum was cut into about 2 cm lengths; from tissue; host or cells: guinea pig ileum
T3 sequence (Q2NNR5 1-340): T1 sequence (Q2NNR5 1-340)
Description: Antihistaminic Action and Anti-LTD4 Action (In vitro Tests)
An isolated guinea pig ileum was cut into about 2 cm lengths. Each ileum piece was suspended in a 20-ml container filled with the Tyrode's buffer. An isotonic contractive response by histamine or LTD4 was recorded on a recorder. The Tyrode's buffer was controlled at 30° C., through which a mixed gas (95%O2 -5%CO2) was bubbled.

Ki [1] [nM]	Ki [2] [nM]	inhibition at 10 µM [3] [%]	Compound
18400	4.31	11	Cn1c(CN2CCCN(CCOc3ccc4ccc(=O)[nH]c4c3)CC2)nc2ccccc21 [Example 80, 7-{2-[4-(N-Methylbenzoimidazol-2-ylmethyl)-1-homopiperazinyl]ethoxy)-1,2-dihydroquinolin-2-one]
8730	5.45	–	Cc1ccc(OCCCN2CCCN(Cc3ccc4ccccc4n3)CC2)c2c1NC(=O)CC2 [Example 60, 8-Methyl-5-{3-[4-(2-quinolylmethyl)-1-homopiperazinyl]propoxy}-1,2,3,4-tetrahydroquinolin-2-one]
–	–	12	O=C1CCc2cccc(OCCCN3CCCN(Cc4ccc5ccccc5n4)CC3)c2N1 [Example 88, 8-{3-[4-(2-Quinolylmethyl)-1-homopiperazinyl]propoxy}-1,2,3,4-tetrahydroquinolin-2-one]
8610	75.9	19	O=c1ccc2ccc(OCCN3CCCN(Cc4ccc5ccccc5n4)CC3)cc2[nH]1 [Example 79, 7-{2-[4-(2-Quinolylmethyl)-1-homopiperazinyl]ethoxy}-1,2-dihydroquinolin-2-one]
49600	13.5	40	Cc1ccc(OCCCCCN2CCN(Cc3ccc4ccccc4n3)CC2)c2c1NC(=O)C2(C)C [Example 9, 3,3,7-Trimethyl-4-{5-[4-(2-quinolylmethyl)-1-piperazinyl]pentyloxy}-2,3-dihydro-1H-indol-2-one]
–	–	19	O=C1CCc2ccc(OCCN3CCCN(Cc4ccc5ccccc5n4)CC3)cc2N1 [Example 81, 7-{2-[4-(2-Quinolylmethyl)-1-homopiperazinyl]ethoxy}-1,2,3,4-tetrahydroquinolin-2-one]
8600	457	–	CC1(C)C(=O)Nc2ccc(OCCN3CCCN(Cc4ccc5ccccc5n4)CC3)cc21 [Example 50, 3,3-dimethyl-5-{2-[4-(2-quinolylmethyl)-1-homopiperazinyl]ethoxy}-2,3-dihydro-1H-indol-2-one dimaleate]
–	–	20	O=C1CCc2ccc(OCCN3CCN(Cc4ccc5ccccc5n4)CC3)cc2N1 [Example 32, 7-{2-[4-(2-Quinolylmethyl)-1-piperazinyl]ethoxy}-1,2,3,4-tetrahydroquinolin-2-one]
–	–	30	O=c1ccc2ccc(OCCN3CCN(Cc4ccc5ccccc5n4)CC3)cc2[nH]1 [Example 39, 7-{2-[4-(2-Quinolylmethyl)-1-piperazinyl]ethoxy}-1,2-dihydroquinolin-2-one]
3830	4.32	–	CC1(C)C(=O)Nc2cccc(OCCCN3CCN(Cc4ccc5ccccc5n4)CC3)c21 [Example 41, 3,3-Dimethyl-4-{3-[4-(2-quinolylmethyl)-1-piperazinyl]propoxy}-2,3-dihydro-1H-indol-2-one]
–	–	10	O=C1CSc2cc(OCCCN3CCN(C(=O)c4ccc5ccccc5n4)CC3)ccc2N1 [Example 102, 7-{3-[4-(2-quinolylcarbonyl)piperazinyl]propoxy}-3,4-dihydro-2H-1,4-benzothiazin-3-one maleate]
881000	0.249	–	Cc1ccc(OCCN2CCCN(Cc3ccc4ccccc4n3)CC2)c2c1NC(=O)C2(C)C [Example 54, 3,3,7-Trimethyl-4-{2-[4-(2-quinolylmethyl)-1-homopiperazinyl]ethoxy}-2,3-dihydro-1H-indol-2-one]
5900	71	–	Cc1ccc(OCCN2CCN(Cc3ccc4ccccc4n3)CC2)c2c1NC(=O)C2(C)C [Example 93, 3,3,7-Trimethyl-4-{2-[4-(2-quinolylmethyl)-1-piperazinyl]ethoxy}-2,3-dihydro-1H-indol-2-one]
–	–	26	CCOCCn1c(CN2CCCN(CCCOc3ccc4c(c3)SCC(=O)N4)CC2)nc2ccccc21 [Example 83, 7-{3-[4-(N-Ethoxyethylbenzoimidazol-2-ylmethyl)-1-homopiperazinyl]-propoxy}-3,4-dihydro-2H-1,4-benzothiazin-3-one]
–	–	48	CC1(C)C(=O)Nc2c(OCCCN3CCN(Cc4ccc5ccccc5n4)CC3)cccc21 [Example 29, 3,3-Dimethyl-7-{3-[4-(2-quinolylmethyl)-1-piperazinyl]propoxy}-2,3-dihydro-1H-indol-2-one]
1610	4.69	19	Cc1ccc(OCCN2CCCN(Cc3ccc4ccccc4n3)CC2)c2c1NC(=O)CC2 [Example 61, 8-Methyl-5-{2-[4-(2-quinolylmethyl)-1-homopiperazinyl]ethoxy}-1,2,3,4-tetrahydroquinolin-2-one]
7340	55.8	–	Cn1c(CN2CCCN(CCOc3ccc4c(c3)CCC(=O)N4)CC2)nc2ccccc21 [Example 75, 6-{2-[4-(N-Methylbenzoimidazol-2-ylmethyl)-1-homopiperazinyl]ethoxy}-1,2,3,4-tetrahydroquinolin-2-one]
7430	18.2	27	CC1(C)C(=O)Nc2cc(OCCCN3CCCN(Cc4ccc5ccccc5n4)CC3)ccc21 [Example 78, 3,3-Dimethyl-6-{3-[4-(2-quinolylmethyl)-1-homopiperazinyl]propoxy}-2,3-dihydro-1H-indol-2-one]
35700	18.3	21	CC1(C)C(=O)Nc2cccc(OCCCN3CCCN(Cc4ccc5ccccc5n4)CC3)c21 [Example 85, 3,3-Dimethyl-4-{3-[4-(2-quinolylmethyl)-1-homopiperazinyl]propoxy}-2,3-dihydro-1H-indol-2-one]
1980	3.39	–	O=C1CCc2cccc(OCCCN3CCN(Cc4ccc5ccccc5n4)CC3)c2N1 [Example 45, 8-{3-[4-(2-Quinolylmethyl)-1-piperazinyl]propoxy)-1,2,3,4-tetrahydroquinolin-2-one]
–	–	25	CC1(C)C(=O)Nc2c(OCCCN3CCCN(Cc4ccc5ccccc5n4)CC3)cccc21 [Example 69, 3,3-Dimethyl-7-{3-[4-(2-quinolylmethyl)-1-homopiperazinyl]propoxy}-2,3-dihydro-1H-indol-2-one]
3240	173	16	CC1(C)C(=O)Nc2ccc(OCCN3CCN(Cc4ccc5ccccc5n4)CC3)cc21 [Example 1, 3,3-dimethyl-5-{2-[4-(2-quinolylmethyl)-1-piperazinyl]ethoxy}-2,3-dihydro-1H-indol-2-one]
110000	74.5	–	Cn1c(CN2CCCN(CCOc3ccc4[nH]c(=O)ccc4c3)CC2)nc2ccccc21 [Example 77, 6-{2-[4-(N-Methylbenzoimidazol-2-ylmethyl)-1-homopiperazinyl]ethoxy}-1,2-dihydroquinolin-2-one]
1990	0.00349	46	O=c1ccc2ccc(OCCCN3CCN(Cc4ccc5ccccc5n4)CC3)cc2[nH]1 [Example 36, 7-{3-[4-(2-Quinolylmethyl)-1-piperazinyl]propoxy}-1,2-dihydroquinolin-2-one]
3340	36.3	27	Cc1ccc(OCCCN2CCN(Cc3nc4ccccc4n3C)CC2)c2c1NC(=O)C2(C)C [Example 26, 3,3,7-Trimethyl-4-{3-[4-(N-methylbenzoimidazol-2-ylmethyl)-1-piperazinyl]propoxy}-2,3-dihydro-1H-indol-2-one]
–	–	13	CC1(C)C(=O)Nc2cc(OCCCCCN3CCN(Cc4ccc5ccccc5n4)CC3)ccc21 [Example 42, 3,3-Dimethyl-6-{5-[4-(2-quinolylmethyl)-1-piperazinyl]pentyloxy}-2,3-dihydro-1H-indol-2-one]
15900	187	–	Cc1ccc(OCCCN2CCCN(Cc3ccc4ccccc4n3)CC2)c2c1NC(=O)C2(C)C [Example 97, 3,3,7-Trimethyl-4-{3-[4-(2-quinolylmethyl)-1-homopiperazinyl]propoxy}-2,3-dihydro-1H-indol-2-one]

Compound	Ki [1] [nM]	Ki [2] [nM]	inhibition at 10 µM [3] [%]
O=C1CCc2cccc(OCCCCN3CCN(Cc4ccc5ccccc5n4)CC3)c2N1 [Example 44, 8-{4-[4-(2-Quinolylmethyl)-1-piperazinyl]butoxy}-1,2,3,4-tetrahydroquinolin-2-one]	–	–	47
O=C1CCc2cccc(OCCCCN3CCCN(Cc4ccc5ccccc5n4)CC3)c2N1 [Example 89, 8-{4-[4-(2-Quinolylmethyl)-1-homopiperazinyl]butoxy}-1,2,3,4-tetrahydroquinolin-2-one]	–	–	21
